Source: patent US11286246B2, “Pro-drugs and related methods” (Aposense LTD., priority 2015, dated 2022)

Assays:
Assay type in all cases: physicochemical
[1] = Stability of Compound 5 in DMSO solution (non-reductive environment), HPLC-MS; details: room temperature, 24 hours, no reducing agent
Method: (§1) A DMSO solution of Compound 5 was incubated at room temperature for 24 hours. […] The Compound was then incubated at room temperature with one equivalent of the reducing agent tris (2-carboxyethyl) phosphine (TCEP). […] Intact Compound 5; (ii). a product corresponding to Compound 5 with two reduced thiol groups (Product 1); (iii). a product corresponding to cleaved Fragment A; and (iv). a product corresponding to cleaved Fragment B.
(§2) However, in reductive conditions, conversion of the disulfide into free thiol groups takes place. Importantly, this step is evidently followed by an intramolecular reaction, with molecular cleavage at the carbamate moiety, conceivably related to nucleophilic attack on the respective carbonyl by a thiol or a thiolate group, conveniently located at the sixth atom position. Therefore, the Compound manifests selective reduction-dependent cleavage. The site of the nucleophilic attack is described in the following Scheme 4: […]

[2] = Reduction-induced cleavage with one equivalent of TCEP, HPLC-MS; details: room temperature, 18 hours
Method: as §1, §2

[3] = Reduction-induced cleavage with excess dithiothreitol (15 equiv), HPLC/MS; details: 15 equiv DTT, DMSO/phosphate buffer pH 7, 37° C., argon
Method: Dithiothreitol (DTT) is a reducing agent; once oxidized, it forms a stable six-membered ring, with an internal disulfide bond. Disulfide compound A was treated with excess dithiothreitol (15 equiv, aq. 0.5M, pH adjusted to 7 with phosphate buffer solution) in DMSO and phosphate buffer solution (pH 7) at 37° C. under an argon atmosphere. Two sets of samples were analyzed by HPLC/MS: at 6 and at 24 hours.
As expected, the peak at 24 hours was of larger amplitude (70% vs. 30%).

[4] = Reduction-induced cleavage with 100 equivalents of DTT, HPLC/MS; details: 100 equiv DTT, DMSO/aqueous buffer pH 7.0, 37° C., argon
Method: The experiment comprised incubation of Compound B with 100 equivalents of the reducing agent DTT (0.1 mL of 2 M solution), 1.0 mL DMSO in aqueous buffer (pH=7.0), at 37° C. under argon atmosphere. Three sets of samples were analyzed by HPLC/MS: at 1 hour, 6 hours, and at 24 hours. […] This structure was thereafter maintained throughout the experiment.
Importantly however, HPLC/MS also indicated the formation of Compound B3, indicating cleavage of Compound B2, at the carbamate bond, with release of the phenolic moiety, Compound B3:
There was evidence for such cleavage, with release of Compound B3, already at one hour of incubation, where 30% cleavage was detected. This increased to 90% of cleaved product at 6 hours, and full cleavage by 24 hours.

## C[C@]12CC[C@@H]3c4ccc(OC(=O)N(CCCCCCO)C5CCSSC5)cc4CC[C@H]3[C@@H]1CC[C@@H]2OCCCOC(C(F)(F)F)(C(F)(F)F)C(F)(F)F (stereo partly drawn) [Compound 5]
[1]
  stability of the DMSO solution by HPLC-MS: stable and intact
[2]
  HPLC-MS products after incubation with reducing agent (intact compound, reduced Product 1, cleaved Fragment A, cleaved Fragment B): four distinct peaks

## CCCCCCN(C(=O)Oc1ccccc1)[C@H]1CCSSC1 [Compound A]
[3]; 6 hours
  cleavage (peak amplitude of cleavage product A3): 30%
  reduction of the disulphide bond (A2): clearly visible
[3]; 24 hours
  cleavage (peak amplitude of cleavage product A3): 70%

## C[C@]12CC[C@@H]3c4cc(F)c(OC(=O)N(CCCO)C5CCSSC5)cc4CC[C@H]3[C@@H]1CC[C@@H]2OCCCOC(C(F)(F)F)(C(F)(F)F)C(F)(F)F (stereo partly drawn) [Compound B]
[4]; 6 hours
  cleavage with release of Compound B3: 90%
[4]; 24 hours
  cleavage with release of Compound B3: full cleavage
[4]; one hour
  cleavage with release of Compound B3: 30%
  reduction of the disulphide bond (conversion of Compound B to Compound B2): full conversion
